Where two headings read alike, the source gives them in different places. Starred links: 1 amine or outer side, 2 acyl side, 3 side chain; linkers in the order of their positions; H or OH if unused. Non-standard residues stand in square brackets, D forms with d. Residues, ends and D or L forms follow the SMILES beside them. No end group written: not given here. *: point of attachment. Fmoc = O=C(OCC1c2ccccc2-c2ccccc21)*; NH(1-naphthyl) = c1ccc2c(N*)cccc2c1; Cbz = O=C(OCc1ccccc1)*; CO = O=C([*:1])[*:2]
Tests used:
hLE [1] = molecular target: T1, hLE (Homo sapiens, UniProt P08246); test: Degradation profiles of peptides by RP-HPLC after incubation with hLE; type: in vitro ADME; settings: incubated with hLE in PBS, 37° C., time-scale hours
T1 construct: Neutrophils (1.4 billion) were isolated from whole blood obtained from a single healthy laboratory donor; from tissue; host or cells: neutrophils from whole blood of a single healthy donor
T1 sequence (P08246 30-247 limits assumed): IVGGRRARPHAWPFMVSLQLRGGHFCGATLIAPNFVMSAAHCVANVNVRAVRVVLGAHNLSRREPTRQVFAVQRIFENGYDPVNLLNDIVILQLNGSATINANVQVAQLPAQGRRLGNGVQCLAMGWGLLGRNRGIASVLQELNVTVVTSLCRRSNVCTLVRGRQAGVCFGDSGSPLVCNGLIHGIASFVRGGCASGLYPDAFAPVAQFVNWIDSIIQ
Description: Several active peptide inhibitors were dissolved in calcium- and magnesium-free phosphate-buffered saline (PBS), 125 μg/250 μL, mixed with 0.25 aliquots of hLE or hCG in 250 μL PBS and incubated at 37° C. Periodically (1,3,8, and 24 hour), 100 μL samples were removed from the reaction vessel. The samples were diluted with 150 μL of 0.1% TFA, frozen with liquid nitrogen, and stored at −20° C. prior to HPLC analysis.
More insight into the mechanism of inhibition is provided by HPLC time-course elution profiles of peptide 1, incubated with hLE in PBS (FIG. 2). […] The other bonds in peptide 1 are cleaved only after several days of incubation with the enzyme.

[2] = molecular target: T2, human leukocyte elastase (hLE) (Homo sapiens, UniProt P08246); test: In-vitro inhibition of hLE (cleavage of MeOSuc-AAPV-NA); type: biochemical
T2 construct: Neutrophils (1.4 billion) were isolated from whole blood obtained from a single healthy laboratory donor; from tissue; host or cells: neutrophils from whole blood of a single healthy donor
T2 sequence (P08246 30-247 limits assumed): T1 sequence (P08246 30-247 limits assumed)
Description: (§1) The enzymatic activity was assayed with MeOSuc-AAPV-NA for hLE determination and Suc-AAPF-NA for hCG determination (both in 100 mM Hepes buffer, pH 7.4, containing 0.05% of the […] detergent Brij-35). The activities of the individual enzymatic fractions were 100% free from cross-contamination. […] The fractions containing hLE and hCG were dialyzed each against 0.1% pyridinium acetate, pH 5.3, divided into 20 aliquots, lyophilized, and stored at −20° C. until use.
Peptides were dissolved in 100 mM Hepes buffer pH 7.4 containing 0.1% Brij-35 with 10% DMSO to yield 600 μM solutions, which were used to make further dilutions with the same buffer, and 80 μL aliquots were added in duplicates to 96-well plates. The substrate, 600 or 900 μM MeOSuc-AAPV-NA in the same buffer with 5% DMSO, was added to each well in addition to the blank wells, and the plate was placed in the plate reader equilibrated to 37° C. (Dynateck MR-6000). Lyophilized aliquots of hLE were dissolved in 1600 μL of 100 mM Hepes buffer without DMSO, and 80 μL of the enzyme solution was added to the peptides and substrate to initiate the reaction. […] The final volume was 240 μL containing: 5% DMSO, 1-200 μM of peptide, 200 μM substrate, and 0.75 μg (about 25 picomol) enzyme.
For hLE, V is determined by fitting a linear equation to the first 6 time-points (10 min) of the kinetics data using the least squares method. […] From calculating the error in the slope of the equation, the relative error for Ki was deduced:
Ki={slope*(1+[S]/Km)}^−1 because Ki=[I]*{(1+[S]/Km)*(Vo/Vi−1)}^−1.
The hLE inhibitory capability of CRP-derived peptides was evaluated by inhibiting the enzymatic cleavage of MeOSuc-AAPV-NA as described in Materials and Methods (section v).

[3] = molecular target: T3, human leukocyte cathepsin G (hCG) (Homo sapiens, UniProt P08311); test: In-vitro inhibition of hCG (conversion of Suc-AAPF-NA); type: biochemical
T3 construct: Neutrophils (1.4 billion) were isolated from whole blood obtained from a single healthy laboratory donor; from tissue; host or cells: neutrophils from whole blood of a single healthy donor
T3 sequence (P08311 21-244 limits assumed): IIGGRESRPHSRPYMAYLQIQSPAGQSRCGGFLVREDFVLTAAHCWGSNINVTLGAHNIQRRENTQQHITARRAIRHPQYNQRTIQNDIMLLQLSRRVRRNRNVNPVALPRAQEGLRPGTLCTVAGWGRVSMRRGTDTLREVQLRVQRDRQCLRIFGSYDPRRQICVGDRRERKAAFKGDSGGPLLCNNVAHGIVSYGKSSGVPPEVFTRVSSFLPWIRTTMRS
Description: as §1
Similar conditions to hLE inhibition experiments ere used except the substrate: 80 μL of 1.8 mM Suc-AAPF-NA. The enzyme was issolved in 800 μL buffer, and the reaction was monitored every 6 min for 1 hour. The final volume was 240 μL containing: 5% DMSO, 1-500 μM peptide, 600 μM substrate, and 1.2 μg enzyme (about 40 picomol).
For hCG, V is determined by fitting a quadratic equation to the total kinetic data (60 min), using the least squares method and calculating V at t=0.
The inhibitory capability of several CRP-derived peptides was evaluated by inhibiting the enzymatic conversion of Suc-AAPF-NA (as described in Materials and Methods (vi) above).

hLE [4] = molecular target: T4, hLE (Homo sapiens, UniProt P08246); settings: CRP as a whole protein; cited from earlier work
T4 sequence (P08246 30-267): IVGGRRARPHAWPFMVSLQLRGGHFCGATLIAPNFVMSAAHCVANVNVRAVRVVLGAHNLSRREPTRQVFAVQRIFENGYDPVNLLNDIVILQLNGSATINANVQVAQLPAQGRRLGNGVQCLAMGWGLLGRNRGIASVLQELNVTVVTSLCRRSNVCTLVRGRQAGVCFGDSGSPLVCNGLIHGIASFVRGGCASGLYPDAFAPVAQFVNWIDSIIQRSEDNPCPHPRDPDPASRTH

[5] = test system: specific receptors on human neutrophils; settings: in vitro; cited from earlier work
[6] = molecular target: specific receptors on monocytes; settings: in vitro; cited from earlier work
[7] = substrate MeOSuc-AAPV-NA, 100 mM Hepes pH 7.4, 37° C., read-out: hLE Ki
[8] = substrate Suc-AAPF-NA, 600 μM, read-out: hCG Ki

Q: With CC[C@H](C)[C@H](NC(=O)[C@@H](Cc1c[nH]cn1)NC(=O)[C@@H](NC(=O)[C@@H]1CCCN1C(=O)[C@H](C)NC(=O)[C@@H](NC(=O)[C@@H](NC(=O)[C@@H](N)C(C)C)[C@@H](C)O)C(C)C)C(C)C)C(=O)O [Peptide 6, Val89-Thr-Val-Ala-Pro-Val-(D)His-Ile96] (H-VTVAPV[dH]I-OH; N-terminus and C-terminus assumed) as the molecule, how does the “cleavage by hLE (HPLC time-course elution profile)” value (shortened to “cleavage by hLE”) (hLE [1]) read?
A: No observable cleavage products

Q: What about the Ki [2] of the same molecule?
A: 450 ± 45 µM

Q: For CC[C@H](C)[C@H](NC(=O)[C@H](Cc1c[nH]cn1)NC(=O)[C@H](NC(=O)[C@@H]1CCCN1C(=O)[C@H](C)NC(=O)[C@@H](NC(=O)[C@@H](NC(=O)[C@@H](N)C(C)C)[C@@H](C)O)C(C)C)C(C)C)C(=O)O [Peptide 7, Val89-Thr-Val-Ala-Pro-(D)Val-His-Ile9] (H-VTVAP[dV]HI-OH; N-terminus and C-terminus assumed), which “cleavage by hLE” value (hLE [1]) is on record?
A: No observable cleavage products

Q: And the Ki [2]?
A: 330 ± 130 µM

Q: Which “cleavage by hLE” value (hLE [1]) does the source give for CC[C@H](C)[C@H](NC(=O)[C@@H](Cc1c[nH]cn1)NC(=O)[C@H](NC(=O)[C@@H]1CCCN1C(=O)[C@H](C)NC(=O)[C@@H](NC(=O)[C@@H](NC(=O)[C@@H](N)C(C)C)[C@@H](C)O)C(C)C)C(C)C)C(=O)O [Peptide 8, Val89-Thr-Val-Ala-Pro-(D)Val-(D)His-Ile96] (H-VTVAP[dV][dH]I-OH; N-terminus and C-terminus assumed) here?
A: No observable cleavage products

Q: What about the Ki [2] of the same molecule?
A: 490 ± 50 µM

Q: What does the source list for CC[C@H](C)[C@H](NC(=O)[C@H](Cc1c[nH]cn1)NC(=O)[C@@H](NC(=O)[C@@H]1CCCN1C(=O)[C@H](C)NC(=O)[C@@H](NC(=O)[C@@H](NC(=O)[C@@H](NC(=O)Nc1cccc2ccccc12)C(C)C)[C@@H](C)O)C(C)C)C(C)C)C(=O)O [Peptide 18, Naphtyl-NH-CO-Val89-Thr-Val-Ala-Pro-Val-His-Ile96] ({NH(1-naphthyl)-CO}-VTVAPVHI-OH)?
A: Ki [2]: 240 ± 35 µM; Ki [3]: 300 ± 40 µM

Q: With CC[C@H](C)[C@H](NC(=O)[C@H](Cc1c[nH]cn1)NC(=O)[C@@H](NC(=O)[C@@H]1CCCN1C(=O)[C@H](C)NC(=O)[C@@H](NC(=O)[C@@H](NC(=O)[C@@H](NC(=O)[C@H](Cc1ccccc1)NC(=O)OCc1ccccc1)C(C)C)[C@@H](C)O)C(C)C)C(C)C)C(=O)O [Peptide 21, CBz-Phe-Val89-Thr-Val-Ala-Pro-Val-His-Ile96] (Cbz-FVTVAPVHI-OH) as the molecule, how does the Ki [2] read?
A: 380 ± 115 µM

Q: What about the Ki [3] of the same molecule?
A: 430 ± 60 µM

Q: Which results are given for CC[C@H](C)[C@H](NC(=O)[C@H](Cc1c[nH]cn1)NC(=O)[C@@H](NC(=O)[C@@H]1CCCN1C(=O)[C@H](C)NC(=O)[C@@H](NC(=O)[C@@H](NC(=O)[C@@H](NC(=O)OCC1c2ccccc2-c2ccccc21)C(C)C)[C@@H](C)O)C(C)C)C(C)C)C(=O)O [Peptide 23, Fmoc-Val89-Thr-Val-Ala-Pro-Val-His-Ile96] (Fmoc-VTVAPVHI-OH)?
A: Ki [2]: 1000 ± 100 µM; Ki [3]: 280 ± 30 µM

Q: For “CRP: plasma protein, major acute phase reactant; five identical sub-units of 206 amino acids forming a cyclic pentamer”, which “inhibitory effect on hLE” value (hLE [4]) is on record?
A: no inhibitory effect

Q: And the Kd [5]?
A: ~0.05 µM

Q: And the Kd [6]?
A: ~0.1 µM

Q: For “DIGYSFTVGGSEILFEVPEVTVAPVHICT [Peptide 3c]”, which Ki [2] is on record?
A: 4 µM

Q: And the Ki [3]?
A: 22 ± 3 µM

Q: Which results are given for “GSEILFEVPEVTVAPVHI [Peptide 2, Gly79-Ser-Glu-Ile-Leu-Phe-Glu-Val-Pro-Glu-Val-Thr-Val-Ala-Pro-Val-His-Ile96]”?
A: Ki [2]: 50 ± 5 µM; Ki [3]: 1200 ± 200 µM

Q: With “H-VTVAPVHI-OH [Peptide 1, Val89-Thr-Val-Ala-Pro-Val-His-Ile96]” as the molecule, how does the “cleavage by hLE” value (hLE [1]) read?
A: cleaved as predicted exclusively at the Val-His bond

Q: What about the Ki [2] of the same molecule?
A: 120 ± 15 µM

Q: And the Ki [3]?
A: 1400 ± 200 µM

Q: What about the “hCG inhibitory capability (in words)” value [3] of the same molecule?
A: slightly inhibitory

Q: For SFTVGGSEILFEVPEVTVAPVHI [Peptide 3], which Ki [2] is on record?
A: 27 ± 3 µM

Q: And the Ki [3]?
A: 500 ± 100 µM

Q: For SFTVGGSEILFEVPEVTVAPVHICT [Peptide 3a], which Ki [2] is on record?
A: 20 ± 3 µM

Q: What about the Ki [3] of the same molecule?
A: 180 ± 30 µM

Q: For “SFTVGGSEILFEVPEVTVAPVHICTSWESA [Peptide 3b]”, which Ki [2] is on record?
A: 22 ± 4 µM

Q: And the Ki [3]?
A: 200 ± 30 µM

Q: What does the source list for “VTVAPFHIP-NH2 [Peptide 13, Val89-Thr-Val-Ala-Pro-Phe-His-Ile96-Pro-NH2]”?
A: Ki [2, 7]: 180 ± 30 µM; Ki [3, 8]: 900 ± 200 µM

Q: With “VTVAPVFI [Peptide 10, Val89-Thr-Val-Ala-Pro-Val-Phe-Ile96]” as the molecule, how does the Ki [2, 7] read?
A: 110 ± 25 µM

Q: What about the Ki [3, 8] of the same molecule?
A: 1 ± 0.2 µM

— patent publication US20020119917A1, “ANTI-INFLAMMATORY PEPTIDES DERIVED FROM C-REACTIVE PROTEIN” (priority 1996, published 2002)
